Laboratory results from patent publication US10577363B2, “Substituted piperidine compounds” (EPIZYME, INC., priority 2014, dated 2020).

Columns and labels:
SMYD3 [1] = target: T1, SMYD3 (Homo sapiens (Human), UniProt Q9H7B4); assay: SMYD3 biochemical assay (SPA, 3H-SAM methylation of MEKK2 protein substrate)
Method in brief: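 Methylation of N-terminally GST-tagged MEKK2 by untagged full-length human SMYD3, using 3H-SAM, in pH 8.0 Tris buffer with TCEP, BSG and Tween 20; enzyme and compound sat 30 min at room temperature before substrate addition. Stopped with 100 uM (final) cold SAM; incorporation read by scintillation proximity as dpm/cpm.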

SMYD3 [2] = target: T1, SMYD3; assay: SMYD3 cell assay (Trimethyl-MEKK2 In-Cell Western in 293T/17 cells); type: cell-based
Method in brief: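 In-Cell Western readout: methanol-fixed cells stained for trimethyl-MEKK2 and flag tag, ratio per well normalized to DMSO and background controls.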

[3] = average of n = 1 to n = 50, read-out: SMYD3 Biochem IC50
[4] = average of n = 1 to n = 50, read-out: SMYD3 Cell IC50

T1 sequence (Q9H7B4 whole entry): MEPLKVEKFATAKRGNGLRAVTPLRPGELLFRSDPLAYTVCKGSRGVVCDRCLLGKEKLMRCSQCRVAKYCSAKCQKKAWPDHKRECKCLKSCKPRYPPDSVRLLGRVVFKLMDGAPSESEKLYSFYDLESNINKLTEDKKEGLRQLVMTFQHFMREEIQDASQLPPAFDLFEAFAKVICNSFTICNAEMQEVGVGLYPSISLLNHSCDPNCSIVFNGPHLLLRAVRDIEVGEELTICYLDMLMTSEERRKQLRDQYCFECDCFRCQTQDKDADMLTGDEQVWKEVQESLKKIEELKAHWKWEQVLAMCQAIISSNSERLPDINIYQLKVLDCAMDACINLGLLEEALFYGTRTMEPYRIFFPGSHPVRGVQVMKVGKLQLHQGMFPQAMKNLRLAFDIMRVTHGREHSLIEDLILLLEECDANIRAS

Compound	IC50 (SMYD3 [1]; [3]) [nM]	IC50 (SMYD3 [2]; [4]) [nM]	IC50 (SMYD3 [1]; read-out: SMYD3 Biochem IC50*) [nM]	IC50 (SMYD3 [2]; read-out: SMYD3 Cell IC50*) [nM]
C[C@H]1C[C@@H](NC(=O)c2cc(C3CC3)on2)CCN1S(=O)(=O)NCc1c(F)cccc1Cl [compound 754, N-((2S,4S)-1-(N-(2-chloro-6-fluorobenzyl)sulfamoyl)-2-methylpiperidin-4-yl)-5-cyclopropylisoxazole-3-carboxamide]	676	3710	–	–
C[C@@H]1CN(S(=O)(=O)N2CC[C@H](NC(=O)c3cc(C4CC4)on3)C[C@@H]2C)C[C@H](C)N1C [compound 755, 5-cyclopropyl-N-((2S,4S)-2-methyl-1-(((3S,5R)-3,4,5-trimethylpiperazin-1-yl)sulfonyl)piperidin-4-yl)isoxazole-3-carboxamide]	677	2380	–	–
C[C@H]1C[C@@H](NC(=O)c2cc(C3CC3)on2)CCN1S(=O)(=O)c1ccnc(N)c1 [compound 756, N-((2S,4S)-1-((2-aminopyridin-4-yl)sulfonyl)-2-methylpiperidin-4-yl)-5-cyclopropylisoxazole-3-carboxamide]	684	1770	–	–
CN(C1CCNCC1)S(=O)(=O)N1CC[C@@H](NC(=O)c2cc(C3CC3)on2)C[C@H]1Cc1ccccc1 [compound 757, N-((2R,4R)-2-benzyl-1-(N-methyl-N-(piperidin-4-yl)sulfamoyl)piperidin-4-yl)-5-cyclopropylisoxazole-3-carboxamide]	726	7610	–	–
O=C(N[C@H]1C[C@H]2CC[C@@H](C1)N2S(=O)(=O)N1CC2COCC(C1)N2)c1cc(C2CC2)on1 [compound 758, N-((1R,3r,5S)-8-((3-oxa-7,9-diazabicyclo[3.3.1]nonan-7-yl)sulfonyl)-8-azabicyclo[3.2.1]octan-3-yl)-5-cyclopropylisoxazole-3-carboxamide]	731	1650	–	–
C[C@H]1C[C@@H](NC(=O)c2cc(C3CC3)on2)CCN1S(=O)(=O)N1CCN(C)[C@H](CCO)C1 [compound 759, 5-cyclopropyl-N-((2S,4S)-1-(((R)-3-(2-hydroxyethyl)-4-methylpiperazin-1-yl)sulfonyl)-2-methylpiperidin-4-yl)isoxazole-3-carboxamide]	733	2060	–	–
CC(=O)NCc1ccc(S(=O)(=O)N2CC[C@H](NC(=O)c3cc(C4CC4)on3)C[C@@H]2C)cc1 [compound 761, N-((2S,4S)-1-((4-(acetamidomethyl)phenyl)sulfonyl)-2-methylpiperidin-4-yl)-5-cyclopropylisoxazole-3-carboxamide]	751	2850	–	–
COCC1CCCN1CCS(=O)(=O)N1[C@@H]2CC[C@H]1C[C@@H](NC(=O)c1cc(C3CC3)on1)C2 (stereo partly drawn) [compound 762, 5-cyclopropyl-N-((1R,3r,5S)-8-((2-(2-(methoxymethyl)pyrrolidin-1-yl)ethyl)sulfonyl)-8-azabicyclo[3.2.1]octan-3-yl)isoxazole-3-carboxamide]	770	2070	–	–
C[C@@H]1C[C@H](NC(=O)c2cc(C3CC3)on2)CCN1C(=O)c1ccc(OCCN2CCNCC2)cc1 [compound 764, 5-cyclopropyl-N-((2R,4R)-2-methyl-1-(4-(2-(piperazin-1-yl)ethoxy)benzoyl)piperidin-4-yl)isoxazole-3-carboxamide]	806	9670	–	–
CCN1CCN(S(=O)(=O)N2[C@@H]3CCC[C@@H]2CC(NC(=O)c2cc(C4CC4)on2)C3)CC1 (stereo partly drawn) [compound 765, 5-cyclopropyl-N-((1R,5R)-9-((4-ethylpiperazin-1-yl)sulfonyl)-9-azabicyclo[3.3.1]nonan-3-yl)isoxazole-3-carboxamide]	836	2420	–	–
O=C(N[C@H]1C[C@H]2CC[C@@H](C1)N2S(=O)(=O)[C@H]1CC[C@@H](NCCO)CC1)c1cc(C2CC2)on1 [compound 767, 5-cyclopropyl-N-((1R,3R,5S)-8-(((1S,4S)-4-((2-hydroxyethyl)amino)cyclohexyl)sulfonyl)-8-azabicyclo[3.2.1]octan-3-yl)isoxazole-3-carboxamide]	–	–	0.4	19.4
O=C(N[C@H]1C[C@H]2CC[C@@H](C1)N2S(=O)(=O)[C@H]1CC[C@H](NCCO)CC1)c1cc(C2CC2)on1 [compound 768, 5-cyclopropyl-N-((1R,3R,5S)-8-(((1R,4R)-4-((2-hydroxyethyl)amino)cyclohexyl)sulfonyl)-8-azabicyclo[3.2.1]octan-3-yl)isoxazole-3-carboxamide]	–	–	0.71	34.7
O=C(N[C@H]1C[C@H]2CC[C@@H](C1)N2S(=O)(=O)N1CC2(CCN(CCc3ccccc3)CC2)C1)c1cc(C2CC2)on1 [compound 769, 5-cyclopropyl-N-((1R,3r,5S)-8-((7-phenethyl-2,7-diazaspiro[3.5]nonan-2-yl)sulfonyl)-8-azabicyclo[3.2.1]octan-3-yl)isoxazole-3-carboxamide]	–	–	0.76	17.9
CN(C)[C@H]1CC[C@@H](S(=O)(=O)N2[C@@H]3CC[C@H]2C[C@@H](NC(=O)c2cc(C4CC4)on2)C3)CC1 [compound 771, 5-cyclopropyl-N-((1R,3R,5S)-8-(((1s,4S)-4-(dimethylamino)cyclohexyl)sulfonyl)-8-azabicyclo[3.2.1]octan-3-yl)isoxazole-3-carboxamide]	–	–	0.94	25.6
C[C@H]1C[C@@H](NC(=O)c2cc(C3CC3)on2)CCN1S(=O)(=O)C[C@H]1CC[C@H](N)C1 [compound 772, N-((2S,4S)-1-((((1S,3S)-3-aminocyclopentyl)methyl)sulfonyl)-2-methylpiperidin-4-yl)-5-cyclopropylisoxazole-3-carboxamide]	–	–	0.95	32.7
C[C@H]1C[C@@H](NC(=O)c2cc(C3CC3)on2)CCN1S(=O)(=O)[C@H]1CC[C@H](N)CC1 [compound 773, N-((2S,4S)-1-(((1r,4S)-4-aminocyclohexyl)sulfonyl)-2-methylpiperidin-4-yl)-5-cyclopropylisoxazole-3-carboxamide]	–	–	1.03	17.7
C[C@H]1C[C@@H](NC(=O)c2cc(C3CC3)on2)CCN1S(=O)(=O)N1CCC(C)(N)CC1 [compound 774, N-((2S,4S)-1-((4-amino-4-methylpiperidin-l-yl)sulfonyl)-2-methylpiperidin-4-yl)-5-cyclopropylisoxazole-3-carboxamide]	–	–	1.04	25.6
CC[C@@H]1C[C@H](NC(=O)c2cc(C3CC3)on2)CCN1S(=O)(=O)CC1CCN(C)CC1 [compound 775, 5-cyclopropyl-N-((2R,4R)-2-ethyl-1-(((1-methylpiperidin-4-yl)methyl)sulfonyl)piperidin-4-yl)isoxazole-3-carboxamide]	–	–	1.07	14.4
O=C(N[C@H]1C[C@H]2CC[C@@H](C1)N2S(=O)(=O)[C@H]1CC[C@H](NCc2ccccc2)CC1)c1cc(C2CC2)on1 [compound 776, N-((1R,3R,5S)-8-(((1r,4R)-4-(benzylamino)cyclohexyl)sulfonyl)-8-azabicyclo[3.2.1]octan-3-yl)-5-cyclopropylisoxazole-3-carboxamide]	–	–	1.12	27.6
CCC[C@@H]1C[C@H](NC(=O)c2cc(C3CC3)on2)CCN1S(=O)(=O)CC1CCN(C)CC1 [compound 777, 5-cyclopropyl-N-((2R,4R)-1-(((1-methylpiperidin-4-yl)methyl)sulfonyl)-2-propylpiperidin-4-yl)isoxazole-3-carboxamide]	–	–	1.14	17
